Experiments:
[1] = target: T1, Methionine aminopeptidase 1 (Saccharomyces cerevisiae S288c, UniProt Q01662); assay: Inhibitory concentration against ScMetAP1 enzyme activity
T1 sequence (Q01662 whole entry): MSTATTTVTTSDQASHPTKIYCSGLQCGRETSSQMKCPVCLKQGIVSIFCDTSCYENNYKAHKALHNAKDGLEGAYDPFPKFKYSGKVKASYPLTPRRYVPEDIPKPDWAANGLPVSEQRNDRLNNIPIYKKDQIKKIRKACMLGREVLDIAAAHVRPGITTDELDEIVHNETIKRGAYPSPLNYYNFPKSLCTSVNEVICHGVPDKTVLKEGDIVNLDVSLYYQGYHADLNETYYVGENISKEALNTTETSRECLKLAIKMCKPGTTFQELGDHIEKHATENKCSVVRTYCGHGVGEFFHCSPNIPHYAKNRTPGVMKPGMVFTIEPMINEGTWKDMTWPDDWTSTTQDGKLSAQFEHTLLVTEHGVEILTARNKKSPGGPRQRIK

[2] = target: T2, Methionine aminopeptidase (Escherichia coli K-12, UniProt P0AE18); assay: Inhibitory concentration against EcMetAP1 enzyme activity
T2 sequence (P0AE18 whole entry): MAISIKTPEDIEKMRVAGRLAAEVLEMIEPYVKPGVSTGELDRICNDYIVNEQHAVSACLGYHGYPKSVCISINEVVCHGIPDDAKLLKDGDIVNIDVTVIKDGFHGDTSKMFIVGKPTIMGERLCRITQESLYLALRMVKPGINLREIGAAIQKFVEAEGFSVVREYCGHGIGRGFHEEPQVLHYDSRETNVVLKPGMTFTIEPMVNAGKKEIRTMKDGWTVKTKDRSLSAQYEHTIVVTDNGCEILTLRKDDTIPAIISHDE

Row | SMILES | IC50 [1] | IC50 [2]
1 | CO[C@@H](Cc1scnc1C(=O)Nc1nccs1)c1ccccc1 | 450 nM | 66 nM
2 | O=C(Nc1nccs1)c1ncsc1CN1CCOCC1 | 1760 nM | 55 nM
3 | COC(C)(C)Cc1scnc1C(=O)Nc1nccs1 | 3210 nM | 69 nM
4 | O=C(Nc1nccs1)c1ncsc1CN1CCCCC1 | 75 nM | 10 nM
5 | O=C(Nc1nccs1)c1ncsc1CCN1CCCCC1 | 410 nM | 45 nM
6 | O=C(OCCc1scnc1C(=O)Nc1nccs1)c1ccccc1 | 3080 nM | 41 nM
7 | CC(=O)OCCc1scnc1C(=O)Nc1nccs1 | 17900 nM | 310 nM
8 | Cc1ccc(S(=O)(=O)OCCc2scnc2C(=O)Nc2nccs2)cc1 | 3720 nM | 1530 nM
9 | O=C(Nc1nccs1)c1ncsc1CN1CCCC1 | 350 nM | 25 nM
10 | COc1ccc(C(Cc2scnc2C(=O)Nc2nccs2)OC)cc1 (centres undefined) | 310 nM | 23 nM
11 | O=C(COCc1ccccc1)OCCc1scnc1C(=O)Nc1nccs1 | 550 nM | 130 nM
12 | CCCCC(Cc1scnc1C(=O)Nc1nccs1)OC (centres undefined) | 450 nM | 100 nM
13 | COC(Cc1scnc1C(=O)Nc1nccs1)c1ccccc1F (centres undefined) | 270 nM | 34 nM
14 | O=C(Nc1nccs1)c1ncsc1CCOCc1ccccc1 | 4250 nM | 90 nM
15 | COC(c1ccccc1)c1scnc1C(=O)Nc1nccs1 (centres undefined) | 750 nM | 61 nM
16 | COC(Cc1scnc1C(=O)Nc1nccs1)C1CCCCC1 (centres undefined) | 400 nM | 54 nM

Row | SMILES | IC50 [1] | IC50 [2]
17 | COC(Cc1scnc1C(=O)Nc1nccs1)c1cccc(Cl)c1 (centres undefined) | 520 nM | 90 nM
18 | CO[C@H](Cc1scnc1C(=O)Nc1nccs1)c1ccccc1 | 450 nM | 36 nM
19 | COc1ccccc1C(Cc1scnc1C(=O)Nc1nccs1)OC (centres undefined) | 570 nM | 35 nM
20 | COc1cc(C(=O)OCCc2scnc2C(=O)Nc2nccs2)cc(OC)c1OC | 1560 nM | 160 nM
21 | COC(Cc1scnc1C(=O)Nc1nccs1)c1cccc(F)c1 (centres undefined) | 340 nM | 37 nM
22 | O=C(Nc1nccs1)c1ncsc1CCOC(=O)C1CCCC1 | 800 nM | 140 nM
23 | CCOC(Cc1scnc1C(=O)Nc1nccs1)C(C)C (centres undefined) | 150 nM | 28 nM
24 | COC(Cc1scnc1C(=O)Nc1nccs1)CC(C)C (centres undefined) | 500 nM | 90 nM
25 | COCc1scnc1C(=O)Nc1nccs1 | 7530 nM | 97 nM
26 | COC(Cc1scnc1C(=O)Nc1nccs1)c1ccccc1 (centres undefined) | 440 nM | 43 nM
27 | O=C(Nc1nccs1)c1ncsc1CCO | 10400 nM | 470 nM
28 | COCCc1scnc1C(=O)Nc1nccs1 | 6430 nM | 150 nM
29 | O=C(Cc1ccccc1)OCCc1scnc1C(=O)Nc1nccs1 | 6040 nM | 33 nM
30 | COC(Cc1scnc1C(=O)Nc1nccs1)c1ccc(Cl)cc1 (centres undefined) | 570 nM | 33 nM
31 | COC(Cc1scnc1C(=O)Nc1nccs1)c1ccccc1Cl (centres undefined) | 230 nM | 170 nM
32 | COC(Cc1scnc1C(=O)Nc1nccs1)c1ccc(F)cc1 (centres undefined) | 390 nM | 57 nM
